Measurements taken from ChEMBL document CHEMBL1146213, “Biscembranoids and their probable biogenetic precursor from the Hainan soft coral Sarcophyton tortuosum” (J Nat Prod, 2007).
Activity calls are given as the source filed them.

Legend:
Cladosporium cucumerinum = assay: Antifungal activity against Cladosporium cucumerinum; type: functional, organism-based
P388 = assay: Antitumor activity against P388 cells; type: functional, cell-based; conditions: Mus musculus
A549 = assay: Antitumor activity against A549 cells; type: functional, cell-based; conditions: Homo sapiens

Measured: Activity

COC(=O)/C1=C/C(=O)C[C@H](C)CCC[C@H](C)C(=O)C[C@H](C(C)C)C(=O)C1
inactive: all assays above

COC(=O)[C@@]12CC(=O)[C@@H](C(C)C)CC(=O)[C@@H](C)CCC[C@@H](C)/C=C3\O[C@@](C)(C[C@@H]31)/C1=C/C[C@](C)(O)[C@H]3CC[C@@](C)(O3)[C@H](O)CC/C(C)=C/[C@H]12
inactive: all assays above

C=C1CC[C@@H]2O[C@@H]1CC/C(C)=C/[C@@H]1C(=C(C)C[C@H]3C(=O)C[C@H](C)CCC[C@H](C)C(=O)C[C@H](C(C)C)C(=O)C[C@@]13C(=O)OC)[C@H](O)C[C@@]2(C)O
inactive: all assays above

COC(=O)[C@@]12CC(=O)[C@@H](C(C)C)CC(=O)[C@@H](C)CCC[C@@H](C)CC(=O)[C@@H]1CC(C)=C1[C@H](O)C[C@@](C)(Cl)[C@@H](O)CC[C@@]3(C)O[C@@H]3CC/C(C)=C/[C@H]12
inactive: all assays above

COC(=O)[C@@]12CC(=O)[C@@H](C(C)C)CC(=O)[C@@H](C)CCC[C@@H](C)CC(=O)[C@@H]1CC(C)=C1[C@H](O)C[C@](C)(Cl)[C@H]3CC[C@@](C)(O3)[C@H](O)CC/C(C)=C/[C@H]12
inactive: all assays above

COC(=O)[C@@]12CC(=O)[C@@H](C(C)C)CC(=O)[C@@H](C)CCC[C@@H](C)CC(=O)[C@@H]1CC(C)=C1[C@H](O)C[C@@]3(C)O[C@@H]3CC[C@@]3(C)O[C@@H]3CC/C(C)=C/[C@H]12
inactive: all assays above
